Values quoted from earlier work in patent US10952973B2, “Production method of pregabalin-containing composition and pregabalin-containing composition” (NITTO DENKO CORPORATION, priority 2018, dated 2021).

| Structure (SMILES) | pKa of the acid aqueous solution (23° C., 0.35 mol/L aqueous solution) | acid dissociation constant (pKa) of the carboxyl group (carboxyl group of pregabalin) |
| --- | --- | --- |
| CCCCCCCCCCCCOS(=O)(=O)O [dodecylsulfuric acid] | −3 |  |
| CC(C)C[C@H](CN)CC(=O)O [pregabalin, Pregabalin] |  | about 4.2 |
